{"source": "patent US20190119635A1", "about": "“MODULATION OF T LYMPHOCYTES” (Fate Therapeutics, Inc., priority 2015, published 2019)", "test_system": "CD3+ T-cells pre-isolated from human peripheral blood", "experiment": "Gene expression panel of CD3+ T-cells treated with dmPGE2 (Affymetrix U133 plus 2.0 GeneChip)", "assay_type": "cell-based", "details": "10 μM dmPGE2, 2 hours at 37° C.; genes ATF3, CREM, GEM, CXCL2, MMP9, PLAUR, AREG, BCL2A1, DUSP4, FOS, FOSL2, JUN, MYC, NR4A2, NR4A3, SOCS1, SOCS3, ULBP2; mean of 3 donors; FIG. 1", "experimental": "RNA was extracted from CD3+ T-cells pre-isolated from human peripheral blood (AllCells, Aiameda CA) (n=3 donors) post ex vivo treatment (2 hours at 37° C. in StemSpan-ACF (StemCell Technologies, Vancouver, Canada)) with 10 μM dmPGE2 (Fate therapeutics, San Diego, Calif.) or vehicle control (DMSO).\nFollowing cell treatments, levels mRNA were quantitated from PicoPure isolated mRNA (Life Technologies, Carlsbad, Calif.) using Affymetrix GeneChip technology. Affymetrix U133 plus 2.0 GeneChip hybridization of all samples was performed in accordance with the manufacturer's recommendations (Affymetrix, Santa Clara, Calif.), involving roughly 200 ng of total RNA and Message Amp II (Life Technologies, Carlsbad, Calif.) standard two round amplification protocols. Probe intensities were normalized according to a log scale robust multi-array analysis (RMA) method (Affymetrix Santa Clara, Calif.). A parametric paired t-test (Benjamini-Hochberg false discovery rate <0.05, adjusted p-value/q-value <0.05, and fold change > or <2 fold) detected probes with significant changes due to the treatment with dmPGE2 and dexamethasone.\nThe probe intensities were converted into linear fold changes of relative expression levels of mRNA by comparison of dmPGE2 and dexamethasone treated CD3+ T-cells in comparison to the vehicle treated control samples. […]"}
{"molecule": "CCCCC(C)(C)[C@H](O)/C=C/[C@H]1[C@H](O)CC(=O)[C@@H]1C/C=C\\CCCC(=O)O", "note": "[dmPGE2, 16,16-dimethyl PGE2]", "values": [{"measurement": "statistically significant increase in expression (linear fold change of mRNA vs vehicle control)", "value": "at least 2 fold"}]}
